The structures appear in SMILES notation.

For the first test, the system named is human bronchial epithelial cells, CFTR corrector, plate reader. Briefly: CFTR ΔF508 corrector activity in bronchial cells, dose response, human bronchial epithelial cells, plate reader, cherry-pick, two tests (AID 743267). The conditions noted are these: measured here: test 1 replicate run.
As to `O=C(Cc1ccccc1)N1CC(=O)N2[C@H](CO)[C@@H](c3ccc(-c4ccccc4)cc3)[C@@H]2C1`, the AC50 worked out at 24.6 µM. The compound `COc1ccc(-c2ccc3c(c2)[C@H]2[C@H](CCN2S(=O)(=O)c2ccc(OC)cc2)[C@H](CO)N3C)cc1` showed an AC50 of 1.17 µM.

Staying with this test, now noted: measured here: test 2 replicate run.
The compound `COc1ccccc1Nc1nc(-c2sc(NC(=O)C(C)(C)C)nc2C)cs1` registered an AC50 of 3.84 µM. Take `CCOc1ccc(-c2cc(C(=O)N/N=C/c3ccc(O)cc3)c3ccccc3n2)cc1`: the AC50 amounted to 16 µM. As for `CCOC1=C2[C@@H](CN(S(=O)(=O)c3ccc(C)cc3)[C@H]2c2ccc(Cl)cc2)[C@H]2C(=O)N(c3ccccc3)C(=O)[C@H]2C1`, the AC50 was greater than 50 µM. Still for that read-out and setting: as for `COC(=O)c1cn(C(=O)c2ccc(C)cc2C)c2ccccc12`, the figure is 7.53 µM; as for `COc1ccc2noc3c2c1C(=O)c1ccccc1-3`, 19.1 µM; as for `Cc1cccc(C(=O)N(Cc2ccco2)c2c(N)n(Cc3ccccc3)c(=O)[nH]c2=O)c1`, greater than 50 µM. Turning to `Cc1ccc(/C=N/NC(=O)C2COc3ccccc3O2)s1` (configuration not stated), the AC50 worked out at 7.28 µM. With `CC(=O)O[C@H]1C(=O)[C@@]2(C)C([C@H](OC(=O)c3ccccc3)[C@]3(O)C[C@H](OC(=O)[C@H](O)[C@@H](NC(=O)c4ccccc4)c4ccccc4)C(C)=C1C3(C)C)[C@]1(OC(C)=O)CO[C@@H]1C[C@H]2O` (some centres not stated), the AC50 stood at 5.6 µM. As for `Cc1ccc(-c2csc3ncn(CC#N)c(=O)c23)cc1C`, the AC50 came to 35.7 µM. As for `COc1ccc2[nH]c(C(=O)N/N=C/c3ccc(OC)c(O)c3)cc2c1`, the AC50 was determined as 0.85 µM. Compound `COc1ccccc1C1CC(=O)Nc2cc3c(cc21)OCCO3` (configuration not stated) gave an AC50 of 1.96 µM. `NS(=O)(=O)c1cc(C2(O)NC(=O)c3ccccc32)ccc1Cl` (configuration not stated) came in with an AC50 greater than 50 µM.

Consider `Cc1cc(Cl)cc(C)c1OCCn1ccnc1`, for which the concentration at half-maximal activity (AC50) was found to be 4.68 µM. Same read-out and setting: as for `CC1(C(=O)NCc2ccccc2)Cc2c(-c3ccc(C(N)=O)cc3)ccnc2O1` (configuration not stated), the figure is 5.22 µM. The compound `COc1cc(/C=C2\SC(=Nc3ccc(Cl)c(C(=O)O)c3)NC2=O)c(Br)c(Br)c1O` registered an AC50 of 6.66 µM. Compound `COc1ccc2[nH]c(C(=O)N/N=C/c3ccc(O)cc3O)cc2c1` gave an AC50 of 4.83 µM. Same read-out and setting: as for `COc1cc(C(=O)Nc2ccccc2C(=O)Nc2ccccn2)cc(OC)c1OC`, the figure is 4.59 µM; as for `COc1ccc(OC)c(C2CC(c3ccccc3)=NN2C(=S)Nc2ccccc2)c1` (configuration not stated), 8.44 µM; as for `Cc1ccc(Nc2nc(-c3sc(C)nc3C)cs2)cc1`, 0.812 µM. Turning to `COc1cc(NC(=O)N2CCNC2=O)cc(C(=O)Nc2cccc(C(F)(F)F)c2)c1`, the AC50 turned out to be 5.11 µM. With `C/C(=N\Nc1ncnc2sc(C)c(C)c12)c1ccccn1`, the AC50 was 0.589 µM.

For `N#CC1=C(N)Oc2cc(N)ccc2C1c1cccc(F)c1` (configuration not stated), the AC50 turned out to be 3.15 µM. The compound `COc1ccc(OC)c(N/C(N)=N/c2nc(C)cc(C)n2)c1` had an AC50 of 39.4 µM. Same read-out and setting: for `COc1ccc(NC(=O)c2nc(C)c(C3(C)CC(c4cccnc4)=NO3)s2)cc1` (configuration not stated) the value was 2.75 µM. Same read-out and setting: for `O=C(Cc1ccc(Br)cc1)NCc1ccccc1` the value was 4.85 µM; for `CC1CN(S(=O)(=O)c2cccc(C(=O)Nc3cc(Cl)ccc3N3CCOCC3)c2)CC(C)O1` (configuration not stated), greater than 50 µM; for `COc1ccc(-c2oc3ccc(-c4cc(OC)c(OC)c(OC)c4)cc3c2C#Cc2ccccn2)cc1`, 26.7 µM. The same measure, in the same setting: as for `CNC(=O)C1CC(=O)N(c2ccc(OCC(=O)Nc3ccccc3)cc2)C1` (configuration not stated), the figure is greater than 50 µM. As to `N#CC(C#N)=C1C=C2C=C(N3CCCCCC3)CCC2CC1` (configuration not stated), the AC50 turned out to be 0.239 µM. `Cc1cc(C)c(/C=C2\C(=O)Nc3ccccc32)[nH]1` displayed an AC50 of 10.8 µM. For `Cc1ccc(OCCNC(=O)c2cccc(S(=O)(=O)NCc3ccccc3)c2)cc1`, the AC50 was 1.64 µM. The same measure, in the same setting: for `C=CCN1C(=O)/C(=C/C=C2/N(CC)c3ccc(S(=O)(=O)N(C)C)cc3N2CC)SC1=S` the value was 3.35 µM; for `COc1cccc2c1C(=O)C=C(C)C2=O`, 15.2 µM; for `O=C1NC(=Nc2cccnc2)S/C1=C/c1ccc(F)cc1`, 9.27 µM. In turn, `NC(=S)NN=Cc1nccc2c(N)cccc12` gave an AC50 of 3.21 µM.

The record behind these values is PubChem BioAssay AID743267 (Broad Institute, 2014).
